Where two headings read alike, the source gives them in different places.
Legend:
HINT1 [1] = target: T1, HINT1 (Homo sapiens, UniProt P49773); experiment: HINT1-catalyzed hydrolysis of RDV MetX, inhibition; format: biochemical
T1 construct: purchased Abcam (Cambridge, MA)
Method: Following protein precipitation and centrifugation, 150 μl of supernatants were dried down and reconstituted with 250 μl water. All samples were analyzed by LC-MS, and PAR values were used for quantification. Disappearance of the MetX substrate was monitored over the incubation time period. Three experiments were conducted with two replicates each experiment, and data are reported as averages from three experiments.
(§1) Data were analyzed using GraphPad Prism 8.0. IC50 values were calculated by nonlinear regression analysis using the following sigmoidal dose-response (variable slope) equation (four-parameter logistic equation). Y=100/[1+10^(logIC50−X)×HillSlope] where X is the log of the concentration of the test compound, and Y is the response. The IC50 values were calculated as an average of three or more independent experiments.

CES2 = target: T2, CES2 (Homo sapiens, UniProt O00748); experiment: CES2-catalyzed hydrolysis of 4-NPA, inhibition by inhibitors; format: biochemical
T2 construct: purchased Corning Incorporated (Corning, NY); host or cells: baculovirus-infected insect cells (microsomal fraction, Supersomes)
T2 sequence (O00748 27-559): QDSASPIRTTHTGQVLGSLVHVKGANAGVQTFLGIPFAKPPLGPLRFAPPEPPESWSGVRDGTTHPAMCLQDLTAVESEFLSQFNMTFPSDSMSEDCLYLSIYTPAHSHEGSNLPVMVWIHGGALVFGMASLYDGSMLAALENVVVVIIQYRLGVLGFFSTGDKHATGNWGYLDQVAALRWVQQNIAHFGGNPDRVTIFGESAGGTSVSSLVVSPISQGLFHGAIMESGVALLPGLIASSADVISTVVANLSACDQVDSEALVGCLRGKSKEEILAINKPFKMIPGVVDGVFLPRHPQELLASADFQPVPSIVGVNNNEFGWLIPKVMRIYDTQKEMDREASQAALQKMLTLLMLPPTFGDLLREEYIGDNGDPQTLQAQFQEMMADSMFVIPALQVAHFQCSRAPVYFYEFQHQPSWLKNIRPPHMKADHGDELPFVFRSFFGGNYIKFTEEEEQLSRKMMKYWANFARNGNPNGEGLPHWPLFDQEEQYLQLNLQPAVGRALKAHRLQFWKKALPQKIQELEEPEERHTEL
Method: (§2) Threefold dilutions of compounds were prepared in 100% DMSO. Compounds (100 μM to 0.005 μM), CES isozymes, and substrate 4-NPA were mixed in a 100-μl reaction volume consisting of 100 mM potassium phosphate buffer (pH 7.4) and 1% DMSO. […] The slopes of the progress curves were used to calculate reaction rates. Reaction rates were plotted as a function of inhibitor concentration, and the data were fit with a four-parameter logistic model using GraphPad Prism software (version 8; La Jolla, CA) to yield IC50 values.
as §1

[2] = A549-hACE2 cytotoxicity analysis; conditions: human, A549-hACE2 cells
Method: The cytotoxicity of compounds was determined in A549-hACE2 cells in the following manner. A549-hACE2 cells (12,000 cells per well in medium containing 2% FBS) were plated into a black opaque 96-well plate (Corning). The next day, 3-fold serial dilutions of compounds were prepared in DMSO in a manner to normalize the DMSO concentration among all cell culture wells. The compounds were further diluted 500-fold in the culture medium containing 2% FBS. Spent medium from overnight incubation was aspirated, 100 μl of diluted compound solutions were added to each well, and cultures were returned to 37°C with 5% CO2. […] Luciferase signals were measured using an Envision microplate reader. The relative luciferase signals were calculated by normalizing the luciferase signals of the compound-treated groups to that of the DMSO-treated groups (set as 100%). The relative luciferase signal (y axis) versus the compound concentration (x axis) was plotted in software GraphPad Prism 8 (version 8). […] Three independent experiments were performed with technical duplicates.

CatA [3] = target: T3, CatA (Homo sapiens, UniProt P10619); experiment: CatA-catalyzed hydrolysis of fluorogenic peptide substrate, inhibition; format: biochemical; parameters: purchased R&D Systems (Minneapolis, MN)
T3 sequence (P10619 29-326 limits assumed): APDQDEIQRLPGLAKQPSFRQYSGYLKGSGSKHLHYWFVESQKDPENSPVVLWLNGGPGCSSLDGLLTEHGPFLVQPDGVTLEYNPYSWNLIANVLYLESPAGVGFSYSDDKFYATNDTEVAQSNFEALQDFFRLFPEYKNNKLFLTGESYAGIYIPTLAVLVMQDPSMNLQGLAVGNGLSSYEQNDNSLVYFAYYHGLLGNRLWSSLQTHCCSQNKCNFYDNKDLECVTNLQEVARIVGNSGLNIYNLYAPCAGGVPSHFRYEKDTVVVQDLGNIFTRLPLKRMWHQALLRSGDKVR
T3 sequence (P10619 327-480 limits assumed): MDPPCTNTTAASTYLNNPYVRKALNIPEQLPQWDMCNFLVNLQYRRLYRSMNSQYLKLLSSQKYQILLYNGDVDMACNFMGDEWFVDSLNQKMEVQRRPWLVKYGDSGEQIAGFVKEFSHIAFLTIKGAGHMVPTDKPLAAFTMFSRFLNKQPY
Method: The reaction was studied under both pH 6.5 (to match CatA-catalyzed RDV reaction conditions with minimal acidic hydrolysis) and pH 5.5 (to mimic acidic lysosomal environment). CatA was initially activated following the manufacturer’s protocol. […] Threefold dilutions of compounds were prepared in 100% DMSO. The final DMSO concentration was kept constant at 1% (vol/vol). […] The slopes of the progress curves were used to measure reaction rates. Reaction rates were plotted as a function of inhibitor concentration, and the data were fit with a four-parameter logistic fit using GraphPad Prism software to yield IC50 values.
as §1

CES1b = target: T4, CES1b (Homo sapiens, UniProt P23141); experiment: CES1b-catalyzed hydrolysis of 4-NPA, inhibition by inhibitors; format: biochemical
T4 construct: purchased Corning Incorporated (Corning, NY); host or cells: baculovirus-infected insect cells (microsomal fraction, Supersomes)
T4 sequence (P23141 18-567): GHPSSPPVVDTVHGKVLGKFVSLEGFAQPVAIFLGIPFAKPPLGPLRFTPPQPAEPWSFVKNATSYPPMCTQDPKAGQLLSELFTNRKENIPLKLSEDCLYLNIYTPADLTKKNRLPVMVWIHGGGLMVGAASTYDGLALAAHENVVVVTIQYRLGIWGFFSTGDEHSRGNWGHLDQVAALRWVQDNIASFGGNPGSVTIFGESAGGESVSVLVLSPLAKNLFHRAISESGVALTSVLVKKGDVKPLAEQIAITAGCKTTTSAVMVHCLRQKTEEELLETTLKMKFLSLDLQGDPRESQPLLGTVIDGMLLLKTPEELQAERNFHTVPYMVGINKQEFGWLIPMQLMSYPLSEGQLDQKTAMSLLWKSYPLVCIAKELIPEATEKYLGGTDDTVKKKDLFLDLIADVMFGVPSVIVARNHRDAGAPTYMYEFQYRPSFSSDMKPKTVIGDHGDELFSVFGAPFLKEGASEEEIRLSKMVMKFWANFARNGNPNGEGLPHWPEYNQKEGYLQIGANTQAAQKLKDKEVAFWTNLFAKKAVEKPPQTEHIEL
Method: as §2, §1

NHBE cells = experiment: Effect of hydrolase inhibitors on GS-443902 formation from RDV in NHBE cells; format: cell-based, human; conditions: coincubation with 1 μM RDV, 24 h, three donors
Method: Cells were harvested at 24 h after compound addition, and the GS-443902 levels were assessed by an LC-MS method.
NHBE cells (5 × 10^5) in 2 ml of BEGM media were seeded in each well of a 6-well plate and incubated overnight at 37°C and 5% CO2. […] Twenty-four hours post-compound addition, the cells were washed 3× with 1 ml of cold 1× Tris-HCl (pH 7.0)-buffered saline, and cells were harvested in 500 μl dry ice-cold extraction buffer (0.1% potassium hydroxide and 67 mM ethylenediamine tetra-acetic acid in 70% methanol, containing 0.5 μM chloro-ATP as internal standard) and transferred to a deep-well block on dry ice. The deep-well block was stored at −80°C until processing. At the time of harvest, two untreated wells for each donor were trypsinized, and the cell counts were determined. All compound combinations were tested in duplicate in cells from three donors.
Each NHBE sample was treated with 500 μl of dry ice-cold extraction buffer (0.1% potassium hydroxide and 67 mM ethylenediamine tetra-acetic acid in 70% methanol, containing 0.5 μM chloro-ATP as internal standard). The above solution was vortexed for 5 min and then centrifuged at 20,000 × g for 10 min. The supernatant was transferred to a clean 96-deep-well plate and then dried on an evaporator. Once dry, samples were reconstituted with 80 μl of 1 mM ammonium phosphate buffer (pH 7) and transferred to a 96-short-well plate for analysis. An aliquot of 10 μl was injected into a Sciex QTrap 6500+ liquid chromatography-tandem mass spectrometry (LC-MS/MS) system run under the multiple reaction monitoring (MRM) operation mode.
Standard calibration curves for NHBE were constructed based on pmol of compound per sample. […] Using the calibration curve, the amount of the metabolites was quantified in each sample, and the intracellular concentrations (pmol/million cells) were determined by dividing the value by the cell number in the sample.

CES1c = target: T5, CES1c (Homo sapiens, UniProt P23141); experiment: CES1c-catalyzed hydrolysis of 4-NPA, inhibition by inhibitors; format: biochemical
T5 construct: purchased Corning Incorporated (Corning, NY); host or cells: baculovirus-infected insect cells (microsomal fraction, Supersomes)
T5 sequence (P23141 18-566 isoform P23141-3 limits assumed): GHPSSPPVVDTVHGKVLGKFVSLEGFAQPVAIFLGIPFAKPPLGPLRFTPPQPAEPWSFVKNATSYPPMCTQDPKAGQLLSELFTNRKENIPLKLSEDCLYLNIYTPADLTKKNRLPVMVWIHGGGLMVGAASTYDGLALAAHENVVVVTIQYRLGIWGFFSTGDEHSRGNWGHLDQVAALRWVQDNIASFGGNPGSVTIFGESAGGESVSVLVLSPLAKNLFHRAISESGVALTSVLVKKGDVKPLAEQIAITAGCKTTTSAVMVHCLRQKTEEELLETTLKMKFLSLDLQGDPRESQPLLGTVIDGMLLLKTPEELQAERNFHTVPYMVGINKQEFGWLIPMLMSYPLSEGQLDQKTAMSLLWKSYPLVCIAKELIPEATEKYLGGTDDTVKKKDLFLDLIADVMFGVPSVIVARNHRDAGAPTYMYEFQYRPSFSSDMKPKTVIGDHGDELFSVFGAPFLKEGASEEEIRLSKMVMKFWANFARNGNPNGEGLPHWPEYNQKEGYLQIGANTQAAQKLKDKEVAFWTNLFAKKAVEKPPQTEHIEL
Method: as §2, §1

SARS-CoV-2 = experiment: microbe, parasite or virus in culture; format: cell-based; conditions: compound alone (plus DMSO), A549-hACE2 cells, 48 h
CatA [4] = system: CatA; parameters: method as in PMID 20801890, PMID 25870059; conditions: published data ref 7, 9; cited from earlier work
CES1 = system: CES1; parameters: method as in PMID 20801890, PMID 25870059; conditions: published data ref 7, 9; cited from earlier work
[5] = system: cellular activation of sofosbuvir (SOF); experiment: Effect of HINT1 inhibitors on cellular activation of sofosbuvir; format: cell-based; conditions: data not shown
HINT1 [6] = target: HINT1; parameters: method as in PMID 31503445; conditions: previously reported by Shah et al. ref 17; read-out: dissociation constant [Kd], HINT1; cited from earlier work
[7] = substrate RDV MetX, read-out: Inhibition (IC50) of enzyme activities, HINT1
[8] = pH 5.5, fluorogenic peptide substrate, read-out: Inhibition (IC50) of enzyme activities, CatA pH 5.5
[9] = pH 6.5, fluorogenic peptide substrate, read-out: Inhibition (IC50) of enzyme activities, CatA pH 6.5
[10] = substrate 4-NPA, read-out: Inhibition (IC50) of enzyme activities, CES1b
[11] = substrate 4-NPA, read-out: Inhibition (IC50) of enzyme activities, CES1c

T1 sequence (P49773 whole entry): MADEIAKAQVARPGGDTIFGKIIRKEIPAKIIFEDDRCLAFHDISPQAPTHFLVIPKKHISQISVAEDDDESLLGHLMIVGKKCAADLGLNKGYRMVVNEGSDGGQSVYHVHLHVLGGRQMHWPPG

| SMILES | IC50 (HINT1 [1]) [µM] | IC50 (CES2) [µM] | CC50 at 48 h [2] [µM] | IC50 (CatA [3]; IC50 values range for CatA, range over pH 6.5 and pH 5.5) [µM] | IC50 (CatA [3]; Inhibition (IC50) of enzyme activities, CatA pH 5.5, pH 5.5, fluorogenic peptide substrate) [µM] | IC50 (CatA [3]; Inhibition (IC50) of enzyme activities, CatA pH 6.5, pH 6.5, fluorogenic peptide substrate) [µM] | IC50 (CES1b) [µM] | Effect on GS-443902 formation in NHBE cells (NHBE cells) | IC50 (CES1c) [µM] | EC50 (SARS-CoV-2) [µM] | IC50 (CatA [4]) [µM] | IC50 (HINT1 [1]; [7]) [µM] | IC50 (CatA [3]; [8]) [µM] | IC50 (CatA [3]; [9]) [µM] | IC50 (CES1b; [10]) [µM] | IC50 (CES1c; [11]) [µM] | IC50 (CES1) [µM] | IC50 (CES2; substrate 4-NPA, read-out: Inhibition (IC50) of enzyme activities, CES2) [µM] | Effect on cellular activation of sofosbuvir (SOF) [5] | Kd (HINT1 [6]) [µM] |
| --- | --- | --- | --- | --- | --- | --- | --- | --- | --- | --- | --- | --- | --- | --- | --- | --- | --- | --- | --- | --- |
| CCC[C@H](NC(=O)[C@@H]1[C@H]2CCC[C@H]2CN1C(=O)[C@@H](NC(=O)[C@@H](NC(=O)c1cnccn1)C1CCCCC1)C(C)(C)C)C(=O)C(=O)NC1CC1 [Telaprevir] | > 100 | > 100 | 29.2 | 0.078 to 0.34 | 0.34 ± 0.06 | 0.078 ± 0.009 | > 100 | dose-dependent inhibition of GS-443902 formation | > 100 | > 50 | 0.21 |  |  |  |  |  |  |  |  |  |
| O=[N+]([O-])c1ccc(OP(=O)(O)Oc2ccc([N+](=O)[O-])cc2)cc1 [BNPP, bis(4-nitrophenyl)phosphate] |  |  |  |  |  |  |  | did not cause a significant change in GS-443902 formation |  |  |  | > 100 | > 100 | > 100 | 0.75 ± 0.12 | 14 ± 5.6 | 0.11 |  |  |  |
| Nc1nc2c(ncn2[C@@H]2O[C@H](COC(=O)NCCc3c[nH]c4ccccc34)[C@@H](O)[C@H]2O)c(=O)[nH]1 [TrpGc] |  |  |  |  |  |  |  | neither of them significantly altered |  |  |  | 1.5 ± 0.5 | > 100 | > 100 | > 100 | > 100 |  | > 100 | neither TrpGc nor compound 7 | 3.65 |

Reference: PMC8370248, “Key Metabolic Enzymes Involved in Remdesivir Activation in Human Lung Cells” (Antimicrobial Agents and Chemotherapy, 2021)
